{"source": "patent US11331294B2", "about": "“Benzoquinone derivative E3330 in combination with chemotherapeutic agents for the treatment of bladder cancer” (Indiana University Research and Technology Corporation, priority 2007, dated 2022)", "key": {"[1]": {"tested_on": "SW780, T24, UC3 cell lines", "test": "Methylene blue cell growth assay, bladder cancer cell panel", "assay_type": "cell-based, human", "procedure": "(§1) FIGS. 31A & 31B. Treatment with APE1/Ref-1 inhibitors potently blocks bladder cancer cell proliferation and activated Caspase 3/7. […] The IC50 values for FIG. 31A were determined using the methylene blue assay, n=4. […] T24 and UC3 cells were treated with APX2009 and APX2014 at the IC50 and IC90 and monitored over time for activation of capsase 3/7 by an increase in red fluorescence. Time course graphs are shown in FIG. 31B and representative images at 48 hr are shown in FIG. 32A (described more fully below), n=3-4.\nBladder cancer cell proliferation was inhibited and apoptosis was induced by potent, selective redox inhibitors of APE1/Ref-1."}, "STAT3": {"tested_on": "STAT3", "test": "STAT3-driven luciferase reporter", "assay_type": "cell-based, human", "conditions": "T24 and UC3 cells induced with IL-6, IC50 concentration, 24 h", "procedure": "(§2) FIGS. 36A-36H. […] In cytokine-induced T24 and UC3 cells NFκB-driven luciferase (FIG. 36A), STAT3-driven luciferase (FIG. 36B), and AP-1-driven luciferase (FIG. 36C) were quantified and normalized via Renilla following treatment with the corresponding cell growth-inhibitory IC50 concentrations. T24 cells were treated with APX2009 (8.5 μM) and APX2014 (6.5 μM), and UC3 cells were treated with APX2009 (6.1 μM) and APX2014 (4.6 μM) for 24 h. (*-p<0.05 APX treated vs vehicle, n=4). […] In the panels of FIGS. 36F & 36G, co-expression of survivin and APE1/Ref-1 was analyzed in superficial (FIG. 36F) and invasive human bladder tumors (FIG. 36G) in patients, and found nearly universal overlap of positivity in both in human samples. This was also true in cisplatin-refractory patients from the tissue microarray specimens (FIG. 36H).\n(§3) The transcriptional activity of NFκB, STAT3, and AP-1 is under redox control by APE1/Ref-1. Therefore, NFκB, STAT3, or AP-1 transcriptional activity was quantified following treatment with APE1/Ref-1 redox inhibitors (FIGS. 36A-36C)."}, "RP-B-02 spheroids": {"tested_on": "RP-B-02 spheroids", "test": "3D spheroid growth assay RP-B-02", "assay_type": "cell-based, human", "conditions": "p<0.05", "from_the_text": "(§4) RP-B-01 and RP-B-02 cells were resuspended in normal growth media containing 3% Reduced Growth Factor Matrigel (BD Biosciences) at a cell density of 1,500 and 3,000 cells/well, respectively and plated in ultra-low adherence 96-well plates (Corning).\n(§5) Spheroids were allowed to form and then treated on days 4, 8, and 12 following plating with media containing 5% serum, 3% Reduced Growth Factor Matrigel, and APE1/Ref-1 inhibitors. Vehicle control, DMSO, was less than 0.01% of the volume, and was equivalent in each well. On Day 15, Alamar blue reagent (LifeTechnologies) was added to each well (10 μL/well) and incubated for 24 hours.\n(§6) In order to mimic tumor growth more accurately in a relevant microenvironment and in a more robust model for predicting response to treatment, a three-dimensional (3D) culture model of patient-derived RP-B-01 and RP-B-02 bladder cancer cells was used. Both RP-B-01 and RP-B-02 cell lines are transitional cell carcinoma staged as T4bN1Mx and T2bN0Mx Grade III tumors, respectively."}, "UC3 cells": {"tested_on": "UC3 cells", "test": "Methylene blue cell growth assay UC3", "assay_type": "cell-based", "conditions": "Homo sapiens, read-out: cell growth-inhibitory IC50", "procedure": "as §1\nas §2, with “36H). […]” for “36H).”"}, "T24 cells": {"tested_on": "T24 cells", "test": "Methylene blue cell growth assay T24", "assay_type": "cell-based", "conditions": "Homo sapiens, T-24, read-out: cell growth-inhibitory IC50", "procedure": "as §1\nas §2, with “36H). […]” for “36H).”"}, "NFκB": {"tested_on": "NFκB", "test": "NFκB-driven luciferase reporter", "assay_type": "cell-based, human", "conditions": "T24 and UC3 cells, IC50 concentration, 24 h", "procedure": "as §2, §3"}, "bladder cancer cells": {"tested_on": "bladder cancer cells", "test": "BrdU incorporation assay in cultured cells", "assay_type": "cell-based", "conditions": "IC50 concentration, 24 hours; control 11.2%±0.84", "procedure": "To determine the proliferation rate of cells in response to APE1/Ref-1 redox inhibitors, cells were grown in the culture conditions described above and treated with inhibitors as described above, in chamber slides. After 24 hours in culture with inhibitors or vehicle, all cells were treated with 3.1 μg/ml BrdU (in sterile PBS; 0.1%) for one hour. Cells were fixed and permeablized with 4% paraformaldehyde and stained for BrdU incorporation with the antibody and methodology described in the Roche BrdU labeling Kit, (Risch-Rotkreuz, Switzerland), using secondary antibodies. Positive cells were captured on a Leica 6000 fluorescent microscope and were quantified relative to Hoechst positive nuclei (total live cells).\nTo further characterize this effect, it was analyzed whether this reduced cell number was due to decreases in proliferation, increases in apoptosis, or both."}, "UC3 and T24 cells": {"tested_on": "UC3 and T24 cells", "test": "Incucyte caspase-3/7 apoptosis assay", "assay_type": "cell-based, human", "conditions": "red fluorescence over time", "procedure": "UC3 and T24 cells were plated in 96-well plates at 3,500 cell/well and allowed to attach overnight. Increasing amounts of APX2009 or APX2014 were added to each well along with 1 μM of the caspase reagent (Caspase-3/7 Red, Essen Bioscience) and then the cells were allowed to recover for 2 hours prior to beginning imaging with the Incucyte system (Essen Bioscience). Each well was imaged for phase contrast as well as red fluorescence every 2 hours for 96 hours. The Incucyte software generated movies of the cells following treatment as well as real-time imaging data with red fluorescence normalized to the percent confluency of the well.\nTo assay for caspase-3/7 mediated apoptosis, the increase in red fluorescence was analyzed over time following the addition of APX2009 and APX2014."}, "[2]": {"tested_on": "RP-B-01, RP-B-02 and T24 cell lines", "test": "Alamar blue combination study with cisplatin", "assay_type": "cell-based, human", "conditions": "combined with increasing concentrations of cisplatin, 72 h", "procedure": "FIGS. 30A-30C. […] RP-B-01, RP-B-02, and T24 cell lines were treated with increasing concentrations of cisplatin in combination with a single dose of either APX2009 or APX2014 as indicated (n=3±SE). Cell proliferation was normalized to Saline control and expressed as Fold Change. Combination index (CI) values calculated with Compusyn for combination of APX inhibitors and cisplatin. CI values indicated mainly additivity (0.95-1.2) to synergy (0.8-0.94).\nBladder cancer cell lines (BLCAb001 (RP-B-01) and BLCAb002 (RP-B-02) maintained in RPMI growth medium with 10% FBS were plated at 4,000 cells/well in poly-D-lysine treated 96-well clear bottom black plates and grown overnight in 5% CO2 at 37° C. Cells in monolayer were then treated with increasing concentrations of redox-specific inhibitor APX3330, APX2014 or APX2009 and serially diluted 1:2 in a 5-point dose scheme. For combination studies, cells were treated with both cisplatin and APX compounds to determine efficacy. After 72 hours, fresh RPMI medium with 5% FBS was exchanged, and a fluorescent metabolic indicator, Alamar Blue was added to each well at 10% final concentration. After a 4 hour incubation, plates were read on a Synergy H4 (Bio-Tek) plate reader. […]\nAPE1/Ref-1 inhibition enhances cisplatin's therapeutic effect. […] Cell proliferation was assessed using Alamar blue 72 h after drug treatment."}, "survivin and Cyclin D1": {"tested_on": "survivin and Cyclin D1", "test": "Western blot of survival and proliferation proteins in cells", "assay_type": "cell-based, human", "conditions": "immunoblot", "procedure": "as §2\nWhole cell extracts were prepared using RIPA (radioimmunoprecipitation) buffer containing protein inhibitors (1:100 PMSF, 1:100 orthovanadate and 1:100 protease inhibitor). Total protein concentration was determined via Lowry or BCA assay. 10-50 μg/well of each lysate was separated by SDS-PAGE using a 12% SDS-polyacrylamide gel. Blots were blocked with 5% nonfat dry milk in 1×TBS for 1 h and incubated overnight with primary antibodies to either APE1/Ref-1 (1:1000 dilution, Novus, NB-100-116), survivin (1:1000, Cell Signaling), Cyclin D1 (1:500, Abcam), PARP-1 (1:1000, Cell Signaling) or GAPDH (1:5000, Cell Signaling). After blots were washed three-six times with TBS-Tween, blots were incubated with HRP-conjugated secondary mouse antibodies (1:5000, Pierce). After washing three-six times with TBS-Tween, blots were visualized by enhanced chemiluminescence (West Pico/West Femto, Pierce).\nFor further confirmation of a decrease in NFκB and STAT3 transcriptional activity, levels of survivin and Cyclin D1 were examined Both survivin and Cyclin D1 are known to be downstream targets of NFκB and STAT3. […] However, unlike APE1/Ref-1, survivin expression was primarily nuclear in both urothelial confined and invasive lesions."}, "RP-B-01 spheroids": {"tested_on": "RP-B-01 spheroids", "test": "3D spheroid growth assay RP-B-01", "assay_type": "cell-based, human", "conditions": "p<0.01", "from_the_text": "as §4, §5, §6"}, "RP-B-02 cells": {"tested_on": "RP-B-02 cells", "test": "Alamar blue monolayer assay RP-B-02", "assay_type": "cell-based, human", "conditions": "72 h", "procedure": "(§7) Bladder cancer cell lines (BLCAb001 (RP-B-01) and BLCAb002 (RP-B-02) maintained in RPMI growth medium with 10% FBS were plated at 4,000 cells/well in poly-D-lysine treated 96-well clear bottom black plates and grown overnight in 5% CO2 at 37° C. Cells in monolayer were then treated with increasing concentrations of redox-specific inhibitor APX3330, APX2014 or APX2009 and serially diluted 1:2 in a 5-point dose scheme. For combination studies, cells were treated with both cisplatin and APX compounds to determine efficacy. After 72 hours, fresh RPMI medium with 5% FBS was exchanged, and a fluorescent metabolic indicator, Alamar Blue was added to each well at 10% final concentration. After a 4 hour incubation, plates were read on a Synergy H4 (Bio-Tek) plate reader. For each drug dose, background was subtracted and then further normalized to media alone.\n(§8) APE1/Ref-1 inhibition enhances cisplatin's therapeutic effect. Cisplatin is the standard of care for bladder cancer, but many patients' tumors are refractory to this therapy. […] To determine this, PDX lines, RP-B-01 and RP-B-02, as well as established cell line, T24, were treated with increasing concentrations of cisplatin in combination with APX compounds (FIGS. 30A-30C). Cell proliferation was assessed using Alamar blue 72 h after drug treatment."}, "RP-B-01 cells": {"tested_on": "RP-B-01 cells", "test": "Alamar blue monolayer assay RP-B-01", "assay_type": "cell-based, human", "procedure": "as §7, §8"}, "endothelial cells": {"tested_on": "endothelial cells", "test": "In vitro tube formation assay", "assay_type": "cell-based", "conditions": "dose dependent", "from_the_text": "In vitro tube formation assay."}, "[3]": {"tested_on": "subretinal neovascularization (SNV) in vldlr-/- retina", "test": "SNV in vldlr-/- knockout mice assay", "assay_type": "in vivo", "conditions": "antibody injection", "procedure": "SNV in vldlr−/− knockout mice assay. […] Experiments were carried out in very-low-density lipoprotein receptor (vldr) knockout mice to determine the effect of APX3330 on inhibition of SNV development in the vldlr−/− mutant. Each animal received a single intravitreal injection of 1 μl volume of BSS as a vehicle control and the fellow eye received 1 μl of […] APX3330. The final concentration of APX3330 was equivalent to approximately 20 μM in the retina. Quantitative measurement of SNV was carried out one week after the treatment in the whole mount retina after lectin-FITC staining. […] The apparent increase of SNV after antibody injection could be due to foreign protein triggered immune response which has been reported before (Tator et al., 2008). APX3330 reduced the number of SNV at a statistically significant level (p<0.01 in paired t-test). […] The Ape1/Ref-1 inhibitor offers a new approach to control angiogenesis for advanced macular degeneration (AMD) treatment."}}}
{"compound": "CCC/C(=C\\C1=C(OC)C(=O)c2ccccc2C1=O)C(=O)NOC", "note": "[APX2014]", "values": [{"measurement": "fold lower IC50 than APX3330", "setting": "[1]", "result": 11, "unit": "fold"}, {"measurement": "STAT3 transcriptional activity", "setting": "STAT3", "result": "reduced the transcriptional activity of NFκB and STAT3"}, {"measurement": "potency in RP-B-02 cells in 3D culture relative to APX3330", "setting": "RP-B-02 spheroids", "result": "more potent in the RP-B-02 cells than parent compound APX3330"}, {"measurement": "IC50", "setting": "UC3 cells", "result": 4.6, "unit": "µM"}, {"measurement": "IC50", "setting": "T24 cells", "result": 6.5, "unit": "µM"}, {"measurement": "NFκB transcriptional activity", "setting": "NFκB", "result": "reduced the transcriptional activity of NFκB and STAT3"}, {"measurement": "BrdU-positive cells", "setting": "bladder cancer cells", "result": "7.2%±0.49"}, {"measurement": "caspase-3/7 activation", "setting": "UC3 and T24 cells", "result": "dose-dependent increase in caspase activation"}, {"measurement": "cellular proliferation when combined with cisplatin", "setting": "[2]", "result": "further reduction in cellular proliferation"}, {"measurement": "expression of c-Myc, Bcl-2, Bcl-XL", "setting": "survivin and Cyclin D1", "result": "No change in expression"}, {"measurement": "expression of survivin and Cyclin D1", "setting": "survivin and Cyclin D1", "result": "significantly down-regulated"}, {"measurement": "relative sensitivity of RP-B-01 cells in 3D culture", "setting": "RP-B-01 spheroids", "result": "significantly more sensitive to APX2014 than APX2009"}]}
{"compound": "N.N.[Cl][Pt][Cl]", "note": "[cisplatin]", "values": [{"measurement": "IC50", "setting": "RP-B-02 cells", "result": 0.5, "unit": "µM"}, {"measurement": "resistance of RP-B-01 relative to RP-B-02 cells", "setting": "RP-B-01 cells", "result": "at least 3 fold"}, {"measurement": "IC50", "setting": "RP-B-01 cells; RP-B-01 cells, 72 h", "result": 1.44, "unit": "µM"}]}
{"compound": "AVASTIN®: VEGF antibody [reference compound]", "values": [{"measurement": "formation of blood-vessel-like tubules", "setting": "endothelial cells", "result": "prevented formation of blood-vessel-like tubules"}, {"measurement": "inhibition to the number of SNV", "setting": "[3]", "result": "neither AVASTIN® (VEGF antibody) nor bFGF antibody treatment showed any sign of inhibition"}]}
